Measurements from patent publication US20110182860A1 (priority 2009, published 2011).
Marks after values point to notes of the source that are not given here.

Test system: sheath blight caused by Rhizoctonia solani
Assay: Rice sheath blight field experiment (Lujiang county of Anhui province)
Assay type: in vivo
From the text: Rice the most important crop in China, and the sheath blight caused by Rhizoctonia solani is one of the most serious diseases in rice.

OCC1=C[C@@H](N[C@H]2C[C@H](CO)[C@@H](O[C@H]3O[C@@H](CO)[C@H](O)[C@@H](O)[C@@H]3O)[C@H](O)[C@H]2O)[C@H](O)[C@@H](O)[C@@H]1O [Jinggangmycin (20%), Jinggangmycin]
Control efficacy: 69.81% | Disease severity, Means ± S.D: 26.51 ± 0.91^b % | Disease severity, I (replicate I): 27.43% | Disease severity, II (replicate II): 26.52% | Disease severity, III (replicate III): 25.60%
